Test results reported in publication PMC4655838, “Versatility in phospho-dependent molecular recognition of the XRCC1 and XRCC4 DNA-damage scaffolds by aprataxin-family FHA domains” (DNA Repair, 2015).
Read-outs that look alike come from different tables or passages of the source. Square brackets hold non-standard residues; d marks the D form. Peptide text beside a SMILES is read from it. pT = C[C@@H](OP(=O)(O)O)[C@H](N)C(=O)O; pS = N[C@@H](COP(=O)(O)O)C(=O)O

What was measured:
Type in all cases: binding
[1] = target: T1, K38A Mutant of aprataxin FHA domain (Homo sapiens, UniProt Q7Z2E3, K52A); assay: ITC of K38A mutant of aprataxin FHA domain with XRCC1 and XRCC4 phosphopeptides; conditions: 22 °C, 50 mM HEPES pH 7.5, 150 mM NaCl, 5 mM β-mercaptoethanol, single-site model
T1 construct: aprataxin residues 1–105; GST (pGEX-6P-1) (N, cleaved yes); made in house; host or cells: Escherichia coli BL21 (DE3)
T1 sequence (Q7Z2E3 15-119 K52A): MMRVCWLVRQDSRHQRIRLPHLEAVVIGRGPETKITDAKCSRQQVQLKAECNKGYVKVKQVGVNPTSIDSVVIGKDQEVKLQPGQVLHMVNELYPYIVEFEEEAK
Source text: (§1) The genes for aprataxin residues 1–105 and APLF residues 1–106 were amplified using primer sets which incorporated 5′ BamHI and 3′ XhoI sites. PCR products and pGEX-6P-1 vector were digested with BamHI and XhoI and religated. All point mutations were generated using a QuickChange Site-Directed Mutagenesis Kit (Stratagene) following the manufacturer's recommended protocol.
(§2) For expression, the pGEX-6P-1/aprataxin-FHA constructs were transformed into Escherichia coli strain BL21 (DE3) and the pGEX-6P-1/APLF-FHA constructs transformed into the strain Rosetta2 (DE3). Cells were grown in LB at 37 °C to an A600 of 0.5, induced with 0.4 mM isopropyl 1-thio-β-D-galactopyranoside and incubated at 18 °C for a further 16 h before harvesting. Cells were lysed by sonication and clarified by centrifugation (20,000 × g × 30 min). The supernatant was applied to a glutathione-4B resin (Amersham) and cleaved from the resin with rhinovirus 3C protease. Proteins were purified further by gel-filtration chromatography on a Superdex 75 matrix in 20 mM Tris pH 7.5, 150 mM NaCl, 5 mM DTT. Selenomethionine-labelled APLF L91 M protein was expressed in Rosetta2 (DE3) cells cultured in SelenoMet base media and nutrients supplemented with seleno-methionine solution (Molecular Dimensions Ltd.) and purified as the wild-type protein.
(§3) Phosphopeptides based on the XRCC1 sequence 515-YAGSTDENTDSEEHQ-529 and the XRCC4 sequence 229-YDESTDEES-237 were synthesised with amidated C-termini to avoid potential end-effects of a free carboxy-terminus by Dr. W. Mawby (University of Bristol), purified by HPLC and characterised by mass spectrometry. FHA-phosphopeptide binding was quantified by isothermal titration calorimetry using a Microcal Omega VP-ITC calorimeter (MicroCal Inc., Northampton, MA). Protein was dialysed against ITC buffer (50 mM HEPES pH 7.5, 150 mM NaCl, 5 mM β-mercaptoethanol) and peptides were dissolved in the dialysis buffer. Experiments were carried out at 22 °C and involved 30 successive 10 μl injections of peptide solution into a sample cell containing protein solution. Titrations with XRCC1 peptides used peptide at 1 mM and protein at 100 μM and titrations with XRCC4 peptides used peptide at 300 μm and protein at 30 μM. Heats of dilution were subtracted and binding isotherms were plotted and analysed with MicroCal origin version 7.0, assuming a single-site binding model.

[2] = target: T2, R42A Mutant of aprataxin FHA domain (Homo sapiens, UniProt Q7Z2E3, R56A); assay: ITC of R42A mutant of aprataxin FHA domain with XRCC1 and XRCC4 phosphopeptides; conditions: 22 °C, 50 mM HEPES pH 7.5, 150 mM NaCl, 5 mM β-mercaptoethanol, single-site model
T2 construct: aprataxin residues 1–105; GST (pGEX-6P-1) (N, cleaved yes); made in house; host or cells: Escherichia coli BL21 (DE3)
T2 sequence (Q7Z2E3 15-119 R56A): as the sequence (Q7Z2E3 15-119 K52A) above, with A38K, R42A counted along it
Source text: as §1, §2, §3

[3] = target: T3, wild-type aprataxin FHA domain (Homo sapiens, UniProt Q7Z2E3); assay: ITC of wild-type aprataxin FHA domain with XRCC1 and XRCC4 phosphopeptides; conditions: 22 °C, 50 mM HEPES pH 7.5, 150 mM NaCl, 5 mM β-mercaptoethanol, peptide in syringe, XRCC1 peptides 1 mM into 100 μM protein, XRCC4 peptides 300 μM into 30 μM protein, single-site model, representative of triplicate
T3 construct: aprataxin residues 1–105; GST (pGEX-6P-1) (N, cleaved yes); made in house; host or cells: Escherichia coli BL21 (DE3)
T3 sequence (Q7Z2E3 15-119): as the sequence (Q7Z2E3 15-119 K52A) above, with A38K counted along it
Source text: as §1, §2, §3

[4] = target: T4, aprataxin FHA domain (Homo sapiens, UniProt Q7Z2E3); assay: NMR (1H-SOFAST-HMQC) titrations of aprataxin FHA domain with XRCC1 phosphopeptides; conditions: NMR titration, 22 °C
T4 construct: aprataxin residues 1–105; GST (pGEX-6P-1) (N, cleaved yes); made in house; host or cells: Escherichia coli BL21 (DE3)
T4 sequence (Q7Z2E3 15-119): as the sequence (Q7Z2E3 15-119 K52A) above, with A38K counted along it
Method: NMR experiments were carried out at 22 °C on Bruker Avance II+ 600 MHz and Avance III 700 MHz spectrometers, each equipped with a cryogenic triple-resonance probe. Protein and peptides were prepared in NMR buffer (20 mM Na Acetate pH 5.8, 50 mM NaCl, 2 mM DTT). Three-dimensional HNCA, HNCO, HNCACB and CBCA(CO)NH experiments were performed to obtain backbone assignments. NMR titration experiments were carried out by adding the unlabelled XRCC1 peptides to ^15N-labeled aprataxin FHA domain. The initial protein concentration was 92 μM and volumes of 2 mM stock solution of peptide were added until the protein:peptide ratio was 1:4. ^1H-SOFAST-HMQC [36] spectra were measured after each titration step. All spectra were processed using nmrPipe, and analysed using CARA/NEASY [38]. The weighted chemical shift change (in ppm units) of each amide proton (ΔδHN) and nitrogen (ΔδN) was calculated according to the equation: Δδtotal = [(ΔδHNWHN)^2 + (ΔδNWN)^2]^1/2 with WHN = 1 and WN = 0.154 [39]. Weighted chemical shifts for residues D37, V45, Q46, V61 and V63 were plotted against peptide concentration to determine individual Kds and averaged to determine the apparent Kd.

[5] = target: T5, wild-type APLF FHA domain (Homo sapiens, UniProt Q8IW19); assay: ITC of wild-type APLF FHA domain with XRCC1 and XRCC4 phosphopeptides; conditions: 22 °C, 50 mM HEPES pH 7.5, 150 mM NaCl, 5 mM β-mercaptoethanol, peptide in syringe, XRCC1 peptides 1 mM into 100 μM protein, XRCC4 peptides 300 μM into 30 μM protein, single-site model, representative of triplicate
T5 construct: APLF residues 1–106; GST (pGEX-6P-1) (N, cleaved yes); made in house; host or cells: Escherichia coli Rosetta2 (DE3)
T5 sequence (Q8IW19 1-106): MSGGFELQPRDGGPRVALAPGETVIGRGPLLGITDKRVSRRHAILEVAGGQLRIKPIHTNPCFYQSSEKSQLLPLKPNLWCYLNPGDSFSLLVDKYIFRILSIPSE
Source text: as §1
For expression, the pGEX-6P-1/aprataxin-FHA constructs were transformed into Escherichia coli strain BL21 (DE3) and the pGEX-6P-1/APLF-FHA constructs transformed into the strain Rosetta2 (DE3). Cells were grown in LB at 37 °C to an A600 of 0.5, induced with 0.4 mM isopropyl 1-thio-β-D-galactopyranoside and incubated at 18 °C for a further 16 h before harvesting. […]
Phosphopeptides based on the XRCC1 sequence 515-YAGSTDENTDSEEHQ-529 and the XRCC4 sequence 229-YDESTDEES-237 were synthesised with amidated C-termini to avoid potential end-effects of a free carboxy-terminus by Dr. W. Mawby (University of Bristol), purified by HPLC and characterised by mass spectrometry. FHA-phosphopeptide binding was quantified by isothermal titration calorimetry using a Microcal Omega VP-ITC calorimeter (MicroCal Inc., Northampton, MA). […] Heats of dilution were subtracted and binding isotherms were plotted and analysed with MicroCal origin version 7.0, assuming a single-site binding model.

Kd [5] [nM] | SMILES | Kd [1] [nM] | Kd [2] [nM] | Kd [3] [nM] | Kd ([4]; 20 mM Na Acetate pH 5.8, 50 mM NaCl, 2 mM DTT, 92 µM 15N aprataxin FHA, 2 mM peptide stock, read-out: Kd from weighted chemical shift of residue Asp37) [nM] | Kd ([4]; pH 5.8, 92 µM aprataxin FHA, read-out: Kd from weighted chemical shift of residue Gln46) [nM] | Kd ([4]; pH 5.8, 92 µM aprataxin FHA, read-out: Kd from weighted chemical shift of residue Val45) [nM] | Kd ([4]; pH 5.8, 92 µM aprataxin FHA, read-out: Kd from weighted chemical shift of residue Val61) [nM] | Kd ([4]; pH 5.8, 92 µM aprataxin FHA, read-out: Kd from weighted chemical shift of residue Val63) [nM]
 | C[C@H](NC(=O)[C@@H](N)Cc1ccc(O)cc1)C(=O)NCC(=O)N[C@@H](COP(=O)(O)O)C(=O)N[C@H](C(=O)N[C@@H](CC(=O)O)C(=O)N[C@@H](CCC(=O)O)C(=O)N[C@@H](CC(N)=O)C(=O)N[C@H](C(=O)N[C@@H](CC(=O)O)C(=O)N[C@@H](CO)C(=O)N[C@@H](CCC(=O)O)C(=O)N[C@@H](CCC(=O)O)C(=O)N[C@@H](Cc1c[nH]cn1)C(=O)N[C@@H](CCC(N)=O)C(N)=O)[C@@H](C)O)[C@@H](C)OP(=O)(O)O [YAGpSpTDENTDSEEHQ] (HELM PEPTIDE1{Y.A.G.[O=C([C@H](COP(=O)(O)O)N[*:1])[*:2]].[C[C@@H](OP(=O)(O)O)[C@H](N[*:1])C(=O)[*:2]].D.E.N.T.D.S.E.E.H.Q.[am]}$$$$V2.0) | 12800 ± 700 | 53200 ± 5800 | 1500 ± 60 | 2000 | 1700 | 2500 | 1600 | 2100
 | C[C@@H](OP(=O)(O)O)[C@H](NC(=O)[C@H](COP(=O)(O)O)NC(=O)[C@H](CCC(=O)O)NC(=O)[C@H](CC(=O)O)NC(=O)[C@@H](N)Cc1ccc(O)cc1)C(=O)N[C@@H](CC(=O)O)C(=O)N[C@@H](CCC(=O)O)C(=O)N[C@@H](CCC(=O)O)C(=O)N[C@@H](CO)C(N)=O [YDEpSpTDEES] (HELM PEPTIDE1{Y.D.E.[O=C([C@H](COP(=O)(O)O)N[*:1])[*:2]].[C[C@@H](OP(=O)(O)O)[C@H](N[*:1])C(=O)[*:2]].D.E.E.S.[am]}$$$$V2.0) | 1900 ± 60 | ≥ 100000 | 250 ± 20 |  |  |  |  | 
 | C[C@@H](OP(=O)(O)O)[C@H](NC(=O)[C@H](COP(=O)(O)O)NC(=O)[C@H](CCC(=O)O)NC(=O)[C@H](CC(=O)O)NC(=O)[C@@H](N)Cc1ccc(O)cc1)C(=O)N[C@@H](CC(=O)O)C(=O)N[C@@H](CCC(=O)O)C(=O)N[C@@H](CCC(=O)O)C(=O)N[C@@H](COP(=O)(O)O)C(N)=O [YDEpSpTDEEpS] (H-YDE[pS][pT]DEE[pS]-NH2) | 1300 ± 50 | ≥ 100000 | 140 ± 10 |  |  |  |  | 
11000 ± 300 | C[C@H](NC(=O)[C@@H](N)Cc1ccc(O)cc1)C(=O)NCC(=O)N[C@@H](COP(=O)(O)O)C(=O)N[C@H](C(=O)N[C@@H](CC(=O)O)C(=O)N[C@@H](CCC(=O)O)C(=O)N[C@@H](CC(N)=O)C(=O)N[C@H](C(=O)N[C@@H](CC(=O)O)C(=O)N[C@@H](COP(=O)(O)O)C(=O)N[C@@H](CCC(=O)O)C(=O)N[C@@H](CCC(=O)O)C(=O)N[C@@H](Cc1c[nH]cn1)C(=O)N[C@@H](CCC(N)=O)C(N)=O)[C@@H](C)OP(=O)(O)O)[C@@H](C)OP(=O)(O)O [YAGpSpTDENpTDpSEEHQ] (H-YAG[pS][pT]DEN[pT]D[pS]EEHQ-NH2) |  |  | 870 ± 50 |  |  |  |  | 
